Assay results as given in US11701336B2, “Method of determining composition effective for treating diabetes” (priority 2015, dated 2023).
Each block holds one molecule with its values, some of them ahead of it.

Assays:
diabetic patients [1] = assay: Cancer in patients during diabetes mellitus treatment (survey and case reports); assay type: in vivo, human; details: person
Source text: On the other hand, it is widely known that the insulin itself may increase the risk of the cancer and many cancer patients can be found in the patients of the diabetes mellitus.

[2] = confirmed by manufacturers; cited from earlier work
diabetic patients [3] = assay: Blood glucose of the patient (casual, postprandial, glycemic control); assay type: in vivo, human
diabetic patients [4] = assay: HbA1c (glycated hemoglobin) of the patient under the prescription; assay type: in vivo, human; details: person; May 17, 2016, only the new drug (DPP4 inhibitor), before metformin+BCAA
Source text: (1) Step to measure HbA1c and lactate levels in patients
(3) Step to measure changes in HbA1c and lactate levels after administration of the composition to the patient,

diabetic patients [5] = assay: Side effects and clinical course, opinion of the doctor; assay type: in vivo, human; details: person; 4 mg antihypertensive diuretic
Description: For each prescription example, the glycemic status of the patient that is dependent on the administered active components and the component amount is measured using HbA1c (glycated hemoglobin) along with changes in the lactic acid value, and opinion of the doctor is recorded together with the change in the values.

Cancer developed during diabetes mellitus treatment (diabetic patients [1]; Case (10)): a bowel cancer was developed
Compound: N#C[C@@H]1CCCN1C(=O)CNC12CC3CC(CC(O)(C3)C1)C2 [Equa]

Compound: O=C(O)[C@H](CC(=O)N1C[C@H]2CCCC[C@H]2C1)Cc1ccccc1 [GLUFAST]
Lactic acidosis [2]: do not cause lactic acidosis

Cancer developed during diabetes mellitus treatment (diabetic patients [1]; Case (13), treated from 2017, January 2019): A bone cancer was found
Compound: N[C@@H](CC(=O)N1CCn2c(nnc2C(F)(F)F)C1)Cc1cc(F)c(F)cc1F [JANUVIA, sitagliptin phosphate hydrate]

Cancer developed during diabetes mellitus treatment (diabetic patients [1]; Case (15), dialysis, used until October 2017, April 2019): A lung cancer was developed
Compound: Cc1cc(N2CCN([C@@H]3CN[C@H](C(=O)N4CCSC4)C3)CC2)n(-c2ccccc2)n1 [TENELIA]

Cancer developed during diabetes mellitus treatment (diabetic patients [1]; Case (9), used until October 2018): A vesical cancer was developed
Cancer developed during diabetes mellitus treatment (diabetic patients [1]; Case (11), 5 mg, March 2019): A liver cancer was developed
Compound: CC#CCn1c(N2CCC[C@@H](N)C2)nc2c1c(=O)n(Cc1nc(C)c3ccccc3n1)c(=O)n2C [Trazenta]

Compound: Cn1c(=O)cc(N2CCC[C@@H](N)C2)n(Cc2cc(F)ccc2C#N)c1=O [Zafatek]
postprandial blood glucose (diabetic patients [3]; person, May 9, 2016, before metformin+BCAA was started): 246 mg/dL
HbA1c (diabetic patients [4]): 5.6%

Compound: NS(=O)(=O)c1cc2c(cc1Cl)NC(C(Cl)Cl)NS2(=O)=O (stereo not drawn) [fluitran]
Effect on the condition of diabetes mellitus (diabetic patients [5]): worsened the condition of diabetes mellitus

Compound: CN(C)C(=N)NC(=N)N.Cl [metformin, metformin hydrochloride]
Blood sugar level (diabetic patients [3]; Case (19), metformin 250 mg after HD, as of August 2020): stable
Lung cancer by PET and MRI (diabetic patients [1]; Case (19), metformin 250 mg after HD from May 2019, after radiation therapy, April 2020): reduction of lung cancer was maintained and there was no metastasis

Compound: CC(C)[C@H]1CC[C@H](C(=O)N[C@H](Cc2ccccc2)C(=O)O)CC1 [nateglinide]
Lactic acidosis [2]: do not cause lactic acidosis
